Measured values as given in patent publication US12715848B2, “Process for the diastereomerically pure preparation of DL/LD-methionylmethionine” (Evonik Operations GmbH, priority 2020, dated 2026).
Values after ≈ are worked out from the molar mass of the structure shown. Residues, ends and D or L forms follow the SMILES beside them.

Key:
[1] = Water solubility at room temperature
[2] = Minimum ignition energy; type: physicochemical
[3] = Dust content; type: physicochemical; conditions: fraction <63 μm
[4] = Determination of bulk density (1 L measuring cylinder); type: physicochemical
Method: The bulk density in kg/L was determined using a 1 L measuring cylinder, which was filled with the bulk material precisely to the 1000 ml mark, and was measured by weighing the weight of the contents so as to result in the bulk density directly.

Row | SMILES | water solubility [1] | minimum ignition energy ([2]; 100° C.) | minimum ignition energy ([2]; room temperature) | dust content [3] | bulk density [4]
1 | CSCCC(N)C(=O)NC(CCSC)C(=O)O (stereo not drawn) [DDLL-Met-Met, DD/LL-methionylmethionine] (H-Met-Met-OH; configuration not given here) | 21.0 mg/mL (≈ 74.9 mM) | – | – | – | –
2 | CSCCC(N)C(=O)NC(CCSC)C(=O)O (stereo not drawn) [DLLD-Met-Met, DL/LD-methionylmethionine] (H-Met-Met-OH; configuration not given here) | – | above 3 mJ | above 10 mJ | approx. 10% | > 600 kg/m^3
